The nature of series [1]: Antiviral activity against Influenza A virus (A/Thailand/Kan353/2004(H5N1)) co-expressing NA plasmid infected in 293T cells assessed as inhibition of viral entry incubated for 30 mins followed by addition of cells measured after 48 hrs by luciferase reporter gene assay. In kind it is functional, cell-based. The following applies: HEK-293T.
Series [2] is described as follows: Cytotoxicity against MDCK cells after 2 days by MTT assay. The settings on record: dog. It counts as cell-based, Canis lupus familiaris.
Series [3] can be described thus: Selectivity index, ratio of CC50 for MDCK cells to IC50 for Influenza A virus (A/Thailand/Kan353/2004(H5N1). It counts as toxicity. The following applies: dog, read-out: Ratio CC50/IC50.
In series [4] the test system is Human immunodeficiency virus 1. The experiment in a line: Antiviral activity against VSV-g pseudotyped HIV1 infected in 293T cells cotransfected with HA and NA plasmid incubated for 30 mins followed by addition of cells measured after 48 hrs by luciferase reporter gene assay. In kind it is functional, cell-based. A general note: A reporter such as luciferase makes a cellular process visible.

A further series relates to Influenza A virus. As to the kind of experiment: Inhibition of Influenza A virus H5N1 neuraminidase N1 subtype at 20 uM/L after 30 mins by fluorescence assay.
Series [5] in a line: (§1) Binding affinity to Influenza A virus (A/Vietnam/1194/2004(H5N1)) His-tagged hemagglutinin after 250 secs by SPR analysis. A general note: In SPR one partner is held on a chip, and binding of the other changes the refractive index at the surface.
Series [6] deals with Influenza A virus (A/Vietnam/1194/2004(H5N1)). Described as §1.
Series [7] in a line: (§2) Binding affinity to Influenza A virus (A/Viet Nam/1203/2004(H5N1)) Fc-tagged hemagglutinin 2 after 250 secs by SPR analysis.
For series [8], the system named is Influenza A virus (A/Viet Nam/1203/2004(H5N1)). The series is described as §2.
Series [9] has as its target Peptidyl-prolyl cis-trans isomerase FKBP1A (Homo sapiens) (UniProt P62942). As to the kind of experiment: Binding affinity to FKBP12 (unknown origin) after 250 secs by SPR analysis.
Series [10] relates to Influenza A virus (A/Puerto Rico/8/1934(H1N1)). As to the kind of experiment: Inhibition of Influenza A virus (A/Puerto Rico/8/34(H1N1)) […] hemagglutination of chicken RBC at 20 uM incubated for 1 hr followed by chicken RBC addition measured for 10 mins.

One may read the IC50 as the concentration that gives 50% inhibition. What is called CC50 is the concentration giving 50% cytotoxicity. Read a low CC50 as greater toxicity to the cells. What is called Kd is the concentration at which binding is half-saturated. Low readings indicate a tighter complex, high ones a looser complex.

Calls of active or inactive are those of the source. The calls are words filed in the database; no cut-off is given here.

Sequence of Peptidyl-prolyl cis-trans isomerase FKBP1A (Homo sapiens) (P62942 whole entry): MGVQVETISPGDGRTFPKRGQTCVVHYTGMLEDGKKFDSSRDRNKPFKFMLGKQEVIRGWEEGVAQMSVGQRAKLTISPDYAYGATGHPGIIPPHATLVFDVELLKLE

With `COC(=O)[C@]12CCC(C)(C)C[C@H]1C1=CC[C@@H]3[C@@]4(C)CC[C@H](O[C@@H]5O[C@H](CO)[C@@H](O)[C@H](O)[C@H]5O[C@@H]5O[C@@H](C)[C@H](O)[C@@H](O)[C@H]5O)C(C)(C)[C@@H]4CC[C@@]3(C)[C@]1(C)CC2`, the 50% inhibitory concentration (IC50) in [1] was 16.3 µM. In addition, the CC50 at 48 h in [2] was determined as 23.6 µM. The selectivity ratio in series [3] worked out at 1.4.
Taken in the same sequence, the figures for `COC(=O)[C@]12CCC(C)(C)C[C@H]1C1=CC[C@@H]3[C@@]4(C)CC[C@@H](O[C@@H]5O[C@H](CO)[C@@H](O[C@@H]6O[C@@H](C)[C@H](O)[C@@H](O)[C@H]6O)[C@H](O)[C@H]5O[C@@H]5O[C@@H](C)[C@H](O)[C@@H](O)[C@H]5O)C(C)(C)[C@@H]4CC[C@@]3(C)[C@]1(C)CC2` were 5.06 µM, more than 200 µM and more than 40.
`C[C@@H]1O[C@@H](O[C@H]2[C@H](O[C@@H]3CC[C@]4(C)[C@H]5CC=C6[C@@H]7CC(C)(C)CC[C@]7(C(=O)OCc7ccccc7)CC[C@@]6(C)[C@]5(C)CC[C@H]4C3(C)C)O[C@H](CO)[C@@H](O[C@@H]3O[C@@H](C)[C@H](O)[C@@H](O)[C@H]3O)[C@@H]2O)[C@H](O)[C@H](O)[C@H]1O`: the concentration for half-maximal inhibition (IC50) in [1] was determined as 5.88 µM. The compound also gave a CC50 at 48 h in series [2] of more than 200 µM. The selectivity ratio in [3] was more than 34. Also, the outcome in series [4] and in series [9] was inactive. Also, the inhibition result with Influenza A virus was “inactive”. The results for the dissociation constant (Kd) in series [5] and in [7] were 0.443 µM and 0.000553 µM, respectively. Moreover, the Activity result in [6] and in series [8] was “Dose-dependent effect” each time.
With `COC(=O)[C@]12CCC(C)(C)C[C@H]1C1=CC[C@@H]3[C@@]4(C)CC[C@H](O[C@@H]5O[C@H](CO)[C@H](O[C@H]6O[C@H](C)[C@@H](O)[C@H](O)[C@@H]6O)[C@H](O)[C@H]5O[C@H]5O[C@H](C)[C@@H](O)[C@H](O)[C@@H]5O)C(C)(C)[C@@H]4CC[C@@]3(C)[C@]1(C)CC2`, in series [1], the IC50 was found to be 11.1 µM. The CC50 at 48 h in [2] is 45.6 µM. In addition, the selectivity ratio in series [3] amounted to 4.1.
Taken in the same sequence, the figures for `CC1(C)CC[C@]2(C(=O)OCc3ccccc3)CC[C@]3(C)C(=CC[C@@H]4[C@@]5(C)CC[C@H](O[C@@H]6O[C@H](CO)[C@@H](O[C@@H]7OC[C@@H](O)[C@@H](O)[C@@H]7O)[C@H](O)[C@H]6O[C@@H]6OC[C@@H](O)[C@@H](O)[C@@H]6O)C(C)(C)[C@@H]5CC[C@]43C)[C@@H]2C1` were more than 50 µM, 48.2 µM and less than 1.
Taken in the same sequence, the figures for `CC1(C)CC[C@]2(C(=O)OCc3ccccc3)CC[C@]3(C)C(=CC[C@@H]4[C@@]5(C)CC[C@H](O[C@@H]6O[C@H](CO)[C@@H](O[C@H]7OC[C@@H](O)[C@H](O)[C@H]7O)[C@H](O)[C@H]6O[C@H]6OC[C@@H](O)[C@H](O)[C@H]6O)C(C)(C)[C@@H]5CC[C@]43C)[C@@H]2C1` were more than 50 µM, 20.8 µM and less than 1.
With `COC(=O)[C@]12CCC(C)(C)C[C@H]1C1=CC[C@@H]3[C@@]4(C)CC[C@H](O[C@@H]5O[C@H](CO)[C@@H](O[C@@H]6O[C@@H](C)[C@H](O)[C@@H](O)[C@H]6O)[C@H](O)[C@H]5O[C@@H]5O[C@@H](C)[C@H](O)[C@@H](O)[C@H]5O)C(C)(C)[C@@H]4CC[C@@]3(C)[C@]1(C)CC2`, the IC50 in series [1] was determined as 4.74 µM. Moreover, the selectivity ratio in series [3] was 3.6.
Take `C[C@H]1O[C@H](O[C@H]2[C@H](O[C@H]3CC[C@]4(C)[C@H]5CC=C6[C@@H]7CC(C)(C)CC[C@]7(C(=O)OCc7ccccc7)CC[C@@]6(C)[C@]5(C)CC[C@H]4C3(C)C)O[C@H](CO)[C@@H](O[C@H]3O[C@H](C)[C@@H](O)[C@H](O)[C@@H]3O)[C@@H]2O)[C@@H](O)[C@@H](O)[C@@H]1O`: the IC50 in series [1] is more than 50 µM. This compound also yielded a CC50 at 48 h in [2] of 52.4 µM. Besides, the selectivity ratio in series [3] is less than 1.
In the same order, the values of `COC(=O)[C@]12CCC(C)(C)C[C@H]1C1=CC(=O)[C@@H]3[C@@]4(C)CC[C@H](O[C@@H]5O[C@H](CO)[C@@H](O[C@@H]6O[C@@H](C)[C@H](O)[C@@H](O)[C@H]6O)[C@H](O)[C@H]5O[C@@H]5O[C@@H](C)[C@H](O)[C@@H](O)[C@H]5O)C(C)(C)[C@@H]4CC[C@@]3(C)[C@]1(C)CC2` are 4.1 µM, 33.8 µM and 8.3.
Taken in the same sequence, the figures for `C[C@@H]1O[C@@H](O[C@H]2[C@H](O[C@H]3CC[C@]4(C)[C@H]5CC=C6[C@@H]7CC(C)(C)CC[C@]7(C(=O)OCc7ccccc7)CC[C@@]6(C)[C@]5(C)CC[C@H]4C3(C)C)O[C@H](CO)[C@@H](O[C@@H]3O[C@@H](C)[C@H](O)[C@@H](O)[C@H]3O)[C@@H]2O)[C@H](O)[C@H](O)[C@H]1O` were 4.82 µM, 23.5 µM and 4.9.
In the same order, the values of `COC(=O)[C@]12CCC(C)(C)C[C@H]1C1=CC[C@@H]3[C@@]4(C)CC[C@H](O[C@@H]5O[C@H](CO)[C@@H](O)[C@H](O[C@@H]6O[C@@H](C)[C@H](O)[C@@H](O)[C@H]6O)[C@H]5O)C(C)(C)[C@@H]4CC[C@@]3(C)[C@]1(C)CC2` are more than 50 µM, 25.3 µM and less than 1.
In the case of `C[C@H]1O[C@H](O[C@@H]2[C@H](O)[C@@H](O[C@H]3O[C@H](C)[C@@H](O)[C@H](O)[C@@H]3O)[C@H](O[C@H]3CC[C@]4(C)[C@H]5CC=C6[C@@H]7CC(C)(C)CC[C@]7(C(=O)OCc7ccccc7)CC[C@@]6(C)[C@]5(C)CC[C@H]4C3(C)C)O[C@@H]2CO)[C@@H](O)[C@@H](O)[C@@H]1O`, the concentration for half-maximal inhibition (IC50) in [1] was 9.36 µM. In series [2], the midpoint of cytotoxicity, the CC50 at 48 h, lay at 82.4 µM. Further, in series [3], the selectivity ratio amounted to 8.8.
Consider `O=C(NCCN1CCCCC1)c1cc(F)cc(C(F)(F)F)c1`, for which, in series [1], the concentration for half-maximal inhibition (IC50) was found to be 4.45 µM. Also, the selectivity ratio in series [3] is 332.
For `COC(=O)[C@]12CCC(C)(C)C[C@H]1C1=CC[C@@H]3[C@@]4(C)CC[C@H](O[C@@H]5O[C@H](CO)[C@@H](O)[C@H](O[C@@H]6O[C@@H](C)[C@H](O)[C@@H](O)[C@H]6O)[C@H]5O[C@@H]5O[C@@H](C)[C@H](O)[C@@H](O)[C@H]5O)C(C)(C)[C@@H]4CC[C@@]3(C)[C@]1(C)CC2`, in series [1], the IC50 was more than 50 µM. Moreover, the midpoint of cytotoxicity in [2], the CC50 at 48 h, lay at 22.4 µM. The selectivity ratio in series [3] was less than 1.
On to `C[C@@H]1O[C@@H](O[C@H]2[C@H](O[C@H]3CC[C@]4(C)[C@H]5C(=O)C=C6[C@@H]7CC(C)(C)CC[C@]7(C(=O)OCc7ccccc7)CC[C@@]6(C)[C@]5(C)CC[C@H]4C3(C)C)O[C@H](CO)[C@@H](O[C@@H]3O[C@@H](C)[C@H](O)[C@@H](O)[C@H]3O)[C@@H]2O)[C@H](O)[C@H](O)[C@H]1O`, for which the IC50 in series [1] came to 4.05 µM. In [2], this compound showed a CC50 at 48 h of 92.7 µM. In addition, the selectivity ratio in series [3] worked out at 22.9. Further, the outcome in series [4] and in series [9] was inactive. The inhibition result (in the series with Influenza A virus; in series [10]) was “inactive” each time. Also, the equilibrium dissociation constant (Kd) in [5] was determined as 0.0617 µM; in [7], 0.00386 µM. The Activity entry in series [6] and in series [8] was “Dose-dependent effect” throughout.
In the case of `CC1(C)CC[C@]2(C(=O)OCc3ccccc3)CC[C@]3(C)C(=CC[C@@H]4[C@@]5(C)CC[C@H](O[C@@H]6O[C@H](CO)[C@@H](O[C@@H]7OC[C@H](O)[C@H](O)[C@H]7O)[C@H](O)[C@H]6O[C@@H]6OC[C@H](O)[C@H](O)[C@H]6O)C(C)(C)[C@@H]5CC[C@]43C)[C@@H]2C1`, in [1], the 50% inhibitory concentration (IC50) is more than 50 µM. Moreover, the midpoint of cytotoxicity in series [2], the CC50 at 48 h, lay at 26.4 µM. Further, in series [3], the selectivity ratio was less than 1.
In the case of `C[C@@H]1O[C@H](O[C@H]2[C@H](O[C@H]3CC[C@]4(C)[C@H]5CC=C6[C@@H]7CC(C)(C)CC[C@]7(C(=O)OCc7ccccc7)CC[C@@]6(C)[C@]5(C)CC[C@H]4C3(C)C)O[C@H](CO)[C@@H](O[C@H]3O[C@@H](C)[C@@H](O)[C@@H](O)[C@@H]3O)[C@@H]2O)[C@@H](O)[C@H](O)[C@@H]1O`, in series [1], the IC50 was determined as 8.65 µM. Besides, in [2], the CC50 at 48 h is 27.4 µM. Moreover, in series [3], the selectivity ratio came to 3.2. Besides, the result in series [4] was inactive. In addition, the inhibition result with Influenza A virus was “inactive”.

The record behind these values is ChEMBL document CHEMBL4052707, “Structure-activity relationships of 3-O-β-chacotriosyl oleanic acid derivatives as entry inhibitors for highly pathogenic H5N1 influenza virus” (Bioorg Med Chem, 2017).
